Data: patent publication US12133916B2, “Process for producing an andrographolide carrier system” (priority 2021, dated 2024)

Test: Water solubility / water-dispersability comparison (FIG. 1)
Type: physicochemical
Conditions: dispersed in water, visual

## C=C1CC[C@@H]2[C@](C)(CO)[C@H](O)CC[C@@]2(C)[C@@H]1C/C=C1/C(=O)OC[C@H]1O [known 99% andrographolide, Andrographolide]
  water-dispersability (FIG. 1): insoluble in water
